These results are taken from US5279956A, “Activated protein C polypeptides and anti-peptide antibodies, diagnostic methods and systems for inhibiting activated protein C” (The Scripps Research Institute, priority 1991, dated 1994).

No end group written: not given here.

Test [1] relates to anti-(390-404) antibody. The test can be described thus: Cross-competition ELISA: anti-(390-404) antibody binding to immobilized PC with fluid-phase competitors. Also noted: species or system rabbit. The conditions noted are these: fluid-phase competitor. As to the method: FIG. 1 illustrates anti-(390-404) antibody binding to immobilized Protein C (PC) in the presence of fluid-phase PC, peptide-(390-404), -(404-390) and -K395A-(390-404). […] Before admixing 2 μg/ml anti-(390-404) antibody to PC-coated wells, the anti-(390-404) antibody was admixed with 0 to 200 μg/ml of either PC, 0 to 1000 μM peptide (-390-404), 0 to 1000 μM peptide-(404-390), or 0-200 μM peptide-K395A-(390-404) for 30 minutes at 37° C. Following biotinylated-goat-anti-rabbit-IgG and streptavidin-alkaline-phosphatase immunoreactions as described in Example 2c, bound anti-(390-404) antibody was detected by addition of 5 milligrams/milliliter (mg/ml) p-nitrophenylphosphate in 0.1M diethanolamine at pH 9.6 followed by measuring of the change in absorbance at 405 nm over time. The amount of anti-(390-404) specifically bound to PC coated wells in the absence of any competing protein was defined as 100%. […]
The specificity of anti-(390-404) antibody for peptide-(390-404) and PC was confirmed by cross-competition binding experiments. […] Bound anti-(390-404) antibody to immobilized PC in the presence of competitors was detected as described in Example 2c.

Test [2] has as its system anti-(390-404) antibody. The test can be described thus: Solid-phase ELISA: binding of anti-(390-404) antibody to immobilized peptides and PC. Also noted: species or system rabbit. As to the method: To determine the immunospecificity of the rabbit antisera obtained in Example 2b, ELISA assays were performed. Briefly, 50 μl of either 50 μM peptide-(390-404) prepared in Example 1 or 10 μg/ml of PC or APC prepared in Example 2c in a buffer consisting of 0.05M sodium carbonate (Na2 CO3) and 0.02% NaN3 at pH 9.0 were admixed into the wells of microtiter plates. The plates were maintained at 37° C. for one hour to permit the antigens to become operatively affixed to the well walls. After washing the antigen-coated wells with TBS, the wells were blocked with 250 μl/well of 10% bovine serum albumin (BSA) (Sigma) in TBS for one hour at 22° C. The blocking solution was then removed and the wells were subsequently washed five times with 250 μl/well of maintenance buffer (0.05M Tris-HCl, 0.1M NaCl, 0.02% NaN3, 1 mg/ml BSA, 5 mM CaCl2, 0.01% Tween 20 at pH 7.4). Fifty μl of rabbit non-immune or specific antiserum serially diluted in maintenance buffer was then admixed to the washed wells and maintained for one hour at 37° C. to allow formation of a solid liquid phase immunoreaction products. The wells were then washed three times with maintenance buffer followed by admixture of 50 μl of 2.0 μg/ml of secondary antibody (polyclonal biotinylated goat-anti-rabbit-IgG) (Pierce Biochemicals) diluted in maintenance buffer to each well for the detection of immunoreactant products. The plates were maintained for 1 hour at 37° C. after which time the secondary antibody solution was removed. After washing the wells as described above, 50 μl of 2.0 μg/ml streptavidin-alkaline-phosphatase (Pierce Biochemicals) in maintenance buffer was admixed into each well and maintained for 30 minutes at 37° C. Detection of specific immunoreaction products was obtained by admixture of 150 μl/well of 5 mg/ml p-nitrophenylphosphate (PNPP) (Pierce Biochemicals) in 0.1M diethanolamine and 0.02% NaN3 at pH 9.6 followed by measurement of the change in absorbance at 405 nm over time using the EL312 Microplate Bio-Kinetics Reader and the KinetiCalc Software Program (Biotek Instruments, Inc., Vt.). Non-specific binding was considered as the measured absorbance in 10% BSA blocked wells which served as negative controls without the preceding coating of a specific protein or peptide. Under the described conditions, non-specific binding never exceeded more than 5% of the specific binding.
The specificity of immunoaffinity purified anti-(390-404) antibody towards peptide-(390-404) and PC was evaluated by measuring the binding in solid-phase ELISA of the antibody to immobilized peptides including -(384-398), -(390-404), -(396-410), -(404-390), and -K395A-(390-404) listed in Table 1 with their corresponding SEQ ID NO, and to PC. […]

The target in test [3] is T1, APC (Homo sapiens, UniProt P04070).
T1 construct: begins at amino acid residue position 158 and ends at 419; The light chain is 155 amino acid residues in length; tissue Factor IX concentrate from Immuno AG, Vienna; thrombin from Enzyme Research Laboratories
The test can be described thus: Activated partial thromboplastin time (APTT) coagulation assay of APC anticoagulant activity. The conditions noted are these: APTT assay in the presence of APC. Type of test: biochemical. As to the method: (§1) The effect of the synthetic peptides on APC anticoagulant activity were determined using the APTT assay in the presence of either normal citrate anticoagulated plasma (NHP) or protein S depleted plasma (PSDP). The assays were performed essentially as described. See Marlar et al., Blood, 59:1067-1072 […]; Suzuki et al., J. Biol. Chem., 258:163-168 (1983); Gruber et al., Blood, 73:639-642 (1989); Ohlin et al., Biochem., 29:644-651 (1990). NHP was purchased from George King Bio-Medical, Inc. (Overland Park, Kans.). PSDP was prepared from a normal human citrate-anticoagulated plasma pool from ten healthy donors. Protein S was immunodepleted from the NHP by immunoaffinity chromatography of NHP over an anti-protein S antibody column to form PSDP. The anti-protein S antibody column was prepared by coupling 100 mg of a monoclonal, high-affinity, calcium-independent anti-PS antibody, designated S7, to 30 ml of CNBr-activated Sepharose 4B (Pharmacia) as described in Example 2c1). Residual total protein S content in the resultant PSDP was less than 0.1% protein S as determined by quantitative immunoblotting, by solid-phase ELISA for total protein S and by electroimmunoassay.
For the APTT assay, APC was prepared as described in Example 2c2). The specific anticoagulant activity of APC was determined to be 250 Units/mg. The concentration of the APC used in the assay was initially optimized with respect to the sensitivity of the assay towards APC-induced prolongation of clotting time compared to clotting time without APC.
(§2) Once the optimal concentration of APC was determined, peptides from Table 2 were then separately admixed for a final concentration of 500 μM with 10 nM APC in 100 μl of TBS-BSA at pH 7.4 to form peptide-APC admixtures. The resulting admixtures were maintained for seven minutes at 37° C. Separate aliquots of peptides maintained under the same conditions in the absence of APC served as controls for the inhibitory effect of synthetic peptides on APC anticoagulant activity. After the maintenance period, 100 μl of NHP and 100 μl APTT-reagent Thrombosil (Ortho Diagnostics, Raritan, N.J.) were admixed into each peptide admixture and maintained for 200 seconds at 37° C. to form a pre-coagulation admixture. In some experiments, PSDP was used in the place of NHP to determine the effect of Protein S on the assay system. Coagulation was then initiated by the admixture of 100 μl of 30 mM CaCl2 in TBS prewarmed to 37° C. to each of the pre-coagulation admixtures. The time for clot formation was measured by an Electra 700 Automatic Coagulation Timer (Medical Laboratory Automation, Inc., Mount Vernon, N.Y.). Each peptide's effect was determined in duplicate.
Additional assays were performed to compare the specificity of the inhibitory effect of peptide-(390-404) on APC anticoagulant activity. Both APTT and Xa-1-stage assays were performed with peptide-(390-404) and with the same peptide synthesized in the reverse order, peptide-(404-390), at concentrations of the peptides ranging from 0 μM to 40 μM. In APTT assays performed as described above in the presence of NHP, APC was used at a concentration of 2.5 nM. For APTT assays in the presence of PSDP, APC was used at a concentration of 5 nM. […]
Once the optimal concentration of APC was determined, anti-(390-404) was separately admixed ranging in concentration from 0.0 to 240 nM with APC in 200 μl of TBS-BSA and 30 mM CaCl2 at pH 7.4 to form an anti-(390-404)-APC immunoreaction admixture pre-maintenance solution. […]

Test [4] addresses T1, APC. Description: APC anticoagulant activity, APTT and Xa-1-stage coagulation assays (mean or both). Type of test: biochemical. The settings on record: for inhibition at 500 µM: 500 μM peptide, mean of APTT and Xa-1-stage assays, 0 = no observable effect ± 10%; for IC50: final peptide concentration at which 50% inhibition of APC activity was observed. As to the method:
as §1, with “2c1).” for “2c1). Residual total protein S content in the resultant PSDP was less than 0.1% protein S as determined by quantitative immunoblotting, by solid-phase ELISA for total protein S and by electroimmunoassay.”
For the APTT assay, APC was prepared as described in Example 2c2). […] The concentration of the APC used in the assay was initially optimized with respect to the sensitivity of the assay towards APC-induced prolongation of clotting time compared to clotting time without APC.
as §2
The synthetic peptides listed in Table 4 are presented in the same order as listed in Table 2, i.e., are reproduced from Table 2. […] For peptides at a concentration of 500 μM that inhibited at least 50% of APC anticoagulant activity, analysis of dose-response was subsequently conducted. The column in Table 4 labeled "Inhibition of APC" represents the inhibition of APC anticoagulant activity measured with 500 μM peptide.
For testing the inhibition of the synthetic peptides on APC activity described above, Xa-1-stage coagulation assays were also performed as described. See Seegers et al., Thrombosis Res., 13:233-243 (1978); Marlar et al., supra; and Walker et al., J. Biol. Chem. 265:1484-1489 (1990).

T1 sequence (P04070 212-461): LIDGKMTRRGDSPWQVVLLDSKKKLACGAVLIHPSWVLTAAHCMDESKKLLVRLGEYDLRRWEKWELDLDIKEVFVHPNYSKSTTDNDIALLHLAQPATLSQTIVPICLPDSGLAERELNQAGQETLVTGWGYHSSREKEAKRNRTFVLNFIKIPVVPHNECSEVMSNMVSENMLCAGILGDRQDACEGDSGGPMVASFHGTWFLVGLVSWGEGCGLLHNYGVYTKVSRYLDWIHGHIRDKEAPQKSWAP
T1 sequence (P04070 43-197): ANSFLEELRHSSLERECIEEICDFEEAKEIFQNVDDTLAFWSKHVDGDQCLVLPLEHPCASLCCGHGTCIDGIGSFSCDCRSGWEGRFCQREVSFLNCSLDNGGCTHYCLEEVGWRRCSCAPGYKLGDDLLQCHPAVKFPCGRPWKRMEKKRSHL

Take “Protein C: human Protein C zymogen immunoaffinity-purified from plasma factor IX concentrate”: the “competition with binding of anti-(390-404) antibody to immobilized PC” value in the test with anti-(390-404) antibody [1] is listed as “competed significantly”. At anti-(390-404) antibody [1] (2 μg/ml antibody, 10 μg/ml PC coated, read-out: Half-maximal inhibition of anti-(390-404) antibody binding to immobilized PC), the IC50 is approximately 0.0092 µM. Besides, the “binding of anti-(390-404) antibody to immobilized peptide or PC” value in the test on anti-(390-404) antibody [2] (solid-phase ELISA) is “Significant immunoreactivity”. Moreover, the “Anti-(390-404) (Absorbance/20 min.)” value in the test on anti-(390-404) antibody [2] (wells coated with 50 μM peptide or 10 μg/ml PC, 2 μg/ml anti-(390-404) antibody, mean of duplicates) amounted to 249 Absorbance/20 min.
Regarding “VLNFIKIPVVPHNEC-NH2 [peptide-(317-331), VLNFIKIPVVPHNEC]”, on APC [3], the IC50 was determined as 500 µM. At APC [4], this substance returned an inhibition at 500 µM of 50% and an IC50 of 500 µM.
For the substance “VSRYLDWIHGHIRDK-NH2 [peptide-(396-410), VSRYLDWIHGHIRDK]”, the IC50 on APC [3] and against APC [4] was 70 µM in each case. Also, the IC90 worked out at 300 µM at APC [3] and 300 µM at APC [4] (final peptide concentration at which 90% inhibition of APC activity was observed, read-out: IC90). This substance showed an inhibition at 500 µM at APC [4] of 95%.
